# Test system: not listed separately
# Assay: In vitro stability in human liver microsome
# Format: in vitro ADME
# Conditions: liver microsomes, read-out: Human liver microsome t1/2
# Text: (§1) Based on the in vitro activity results, representative compounds were selected for assay studies on the stability in liver microsome, and the results were as follows.
row,SMILES,half-life [min]
1,Cc1nn(-c2cncc(F)c2)c(C)c1-c1cc(N2CCOC[C@H]2C)nc(-c2cc(F)cc3[nH]ccc23)n1 [Compound A11],44
2,Cc1nn(-c2cncc(F)c2)c(C)c1-c1cc(N2CCOC[C@H]2C)nc(-c2cccc3[nH]ccc23)n1 [Compound A17],65

# Test system: not listed separately
# Assay: In vivo oral administration pharmacokinetics in mice
# Parameters: AUC: concentration or dose not given beside the values
# Conditions: mouse
# Text: Based on the in vitro activity results, representative compounds were selected for in vivo pharmacokinetic studies.
# In Vivo Oral Administration—Pharmacokinetic Results in Mice: […]
SMILES,AUC [ng·h/mL],Cmax [ng/mL],Tmax [h],half-life [min]
Cc1nn(-c2cncc(F)c2)c(C)c1-c1cc(N2CCOC[C@H]2C)nc(-c2cc(F)cc3[nH]ccc23)n1 [Compound A11],15200,1470,3.3,180
Cc1nn(-c2cncc(F)c2)c(C)c1-c1cc(N2CCOC[C@H]2C)nc(-c2cccc3[nH]ccc23)n1 [Compound A17],8210,815,1.75,138
Cc1nn(-c2cncc(F)c2)c(C)c1-c1cc(N2CCOC[C@H]2C)nc(-c2ccnc3[nH]ccc23)n1 [Compound A19],1730,331,1,144
Cc1nn(-c2cncc(F)c2)c(C)c1-c1cc(N2CCOC[C@H]2C)nc(-c2cc(CO)cc3[nH]ccc23)n1 [Compound A22],1200,865,0.33,84
CNc1nc2ccccc2n1-c1nc(-c2c(C)nn(-c3cncc(F)c3)c2C)cc(N2CCOC[C@H]2C)n1 [Compound B1],8750,1450,2.8,258

# Test system: not listed separately
# Assay: In vitro stability in mouse liver microsome
# Format: in vitro ADME
# Conditions: liver microsomes, read-out: Mouse liver microsome t1/2
# Text: as §1
row,SMILES,half-life [min]
1,Cc1nn(-c2cncc(F)c2)c(C)c1-c1cc(N2CCOC[C@H]2C)nc(-c2cc(F)cc3[nH]ccc23)n1 [Compound A11],134
2,Cc1nn(-c2cncc(F)c2)c(C)c1-c1cc(N2CCOC[C@H]2C)nc(-c2cccc3[nH]ccc23)n1 [Compound A17],61

# Test system: MV4-11 (leukemia)
# Assay: Cell proliferation inhibition in vitro, CellTiter-Glo, MV4-11
# Format: cell-based
# Conditions: Homo sapiens; MV4-11 cells, 120 hours, CellTiter-Glo; read-out: MV4-11/IC50/μM
# Description: (§2) By detecting the effect of compounds on cell activity in vitro in tumor cell lines TOV21G (ovarian cancer) and MV4-11 (leukemia), the inhibitory effect of compounds on cell proliferation was studied in this assay.
# (§3) TOV21G cells and MV4-11 cells were purchased from American Type Culture Collection (ATCC).
# MV-4-11 cells were cultured in IMDM medium (containing 20% of FBS). About 10,000 cells were inoculated in each well of a 96-well culture plate, and treated by adding different concentrations (0-10 μM) of compounds to be assayed. Each group was assayed in triplicate. Blank wells (containing medium only) and control wells (inoculated cells without being treated with drug) were set. Cells were cultured for 120 hours. 40 μL of Cell Titer-Glo solutions were added to each well, and the cells were incubated with shaking for 20 min in the dark. 100 μL of solution was transferred from each well to a 96-well blank plate, and the luminescence value was read by Biotek Synergy HI multifunctional microplate reader. Inhibition rate (%)=100%×(control well−assay well)/(control well−blank well)
row,SMILES,IC50 [µM]
1,Cc1nn(-c2cncc(F)c2)c(C)c1-c1cc(N2CCOC[C@H]2C)nc(-c2cc(F)cc3[nH]ccc23)n1 [Compound A11],0.214
2,Cc1nn(-c2cncc(F)c2)c(C)c1-c1cc(N2CCOC[C@H]2C)nc(-c2cccc3[nH]ccc23)n1 [Compound A17],0.19
3,Cc1nn(-c2cncc(F)c2)c(C)c1-c1cc(N2CCOC[C@H]2C)nc(-c2ccnc3[nH]ccc23)n1 [Compound A19],0.312
4,Cc1nn(-c2cncc(F)c2)c(C)c1-c1cc(N2CCOC[C@H]2C)nc(-c2cc(CO)cc3[nH]ccc23)n1 [Compound A22],0.169
5,CNc1nc2ccccc2n1-c1nc(-c2c(C)nn(-c3cncc(F)c3)c2C)cc(N2CCOC[C@H]2C)n1 [Compound B1],0.231
6,Cc1nn(-c2cncc(F)c2)c(C)c1-c1cc(C23CCOCC2C3)nc(-c2cccc3[nH]ccc23)n1 (stereo not drawn) [Compound C3],0.632

# Molecular target: ATM (Homo sapiens, UniProt Q13315)
# Assay: Kinase selectivity: inhibitory activity against ATM
# Format: biochemical
# Conditions: 10 concentrations, 10 μM to 0.51 nM
# Description: (§4) The compound of the present disclosure was assayed for inhibition of the same family (ATM, DNA-PK and mTOR):
# (§5) According to the assay method reported in the literature, the compound to be assayed was serially diluted 3-fold to 0.51 nM starting from 10 μM (a total of 10 concentrations), and assayed for the inhibitory activities against kinases ATM^1, DNA-PK^2 and mTOR^3, respectively.
row,SMILES,IC50 [nM]
1,Cc1nn(-c2cncc(F)c2)c(C)c1-c1cc(N2CCOC[C@H]2C)nc(-c2cc(CO)cc3[nH]ccc23)n1 [Compound A22],2590

# Molecular target: mTOR (Homo sapiens, UniProt P42345)
# Assay: Kinase selectivity: inhibitory activity against mTOR
# Format: biochemical
# Conditions: 10 concentrations, 10 μM to 0.51 nM
# Description: as §4, §5
row,SMILES,IC50 [nM]
1,Cc1nn(-c2cncc(F)c2)c(C)c1-c1cc(N2CCOC[C@H]2C)nc(-c2cc(CO)cc3[nH]ccc23)n1 [Compound A22],1160

# Molecular target: DNA-PK (Homo sapiens, UniProt P78527)
# Assay: Kinase selectivity: inhibitory activity against DNA-PK
# Format: biochemical
# Conditions: 10 concentrations, 10 μM to 0.51 nM; read-out: IC50/DNAPK
# Description: as §4, §5
row,SMILES,IC50 [nM]
1,Cc1nn(-c2cncc(F)c2)c(C)c1-c1cc(N2CCOC[C@H]2C)nc(-c2cc(CO)cc3[nH]ccc23)n1 [Compound A22],284

# Test system: TOV21G (ovarian cancer)
# Assay: Cell proliferation inhibition in vitro, CellTiter-Glo, TOV21G
# Format: cell-based
# Conditions: Homo sapiens; TOV21G cells, 120 hours, CellTiter-Glo; read-out: TOV21G/IC50/μM
# Description: as §2, §3
# TOV21G cells were cultured in MCDB105/M199 medium (containing 15% of FBS), and used for assaying when the cell confluence reached 85% or more. About 1000 cells were inoculated in each well of a 96-well culture plate, and cultured for 24 hours. Different concentrations (0-10 μM) of compounds to be assayed were added to treat the cells. Each group was assayed in triplicate. Blank wells (containing medium only) and control wells (inoculated cells without being treated with drug) were set. Cells were cultured for 120 hours. 40 μL of Cell Titer-Glo solutions (Promega, #G7573) were added to each well, and the cells were incubated with shaking for 20 min in the dark. 100 μL of solution was transferred from each well to a 96-well blank plate (Corning, #3917), and the luminescence value was read by Biotek Synergy H1 multifunctional microplate reader.
row,SMILES,IC50 [µM]
1,Cc1nn(-c2cncc(F)c2)c(C)c1-c1cc(N2CCOC[C@H]2C)nc(-c2cc(F)cc3[nH]ccc23)n1 [Compound A11],0.291
2,Cc1nn(-c2cncc(F)c2)c(C)c1-c1cc(N2CCOC[C@H]2C)nc(-c2cccc3[nH]ccc23)n1 [Compound A17],0.196
3,Cc1nn(-c2cncc(F)c2)c(C)c1-c1cc(N2CCOC[C@H]2C)nc(-c2ccnc3[nH]ccc23)n1 [Compound A19],0.237
4,Cc1nn(-c2cncc(F)c2)c(C)c1-c1cc(N2CCOC[C@H]2C)nc(-c2cc(CO)cc3[nH]ccc23)n1 [Compound A22],0.457
5,CNc1nc2ccccc2n1-c1nc(-c2c(C)nn(-c3cncc(F)c3)c2C)cc(N2CCOC[C@H]2C)n1 [Compound B1],0.194
6,Cc1nn(-c2cncc(F)c2)c(C)c1-c1cc(C23CCOCC2C3)nc(-c2cccc3[nH]ccc23)n1 (stereo not drawn) [Compound C3],0.667

# Molecular target: ATR kinase (Homo sapiens, UniProt Q13535)
# Sequence (Q13535 whole entry): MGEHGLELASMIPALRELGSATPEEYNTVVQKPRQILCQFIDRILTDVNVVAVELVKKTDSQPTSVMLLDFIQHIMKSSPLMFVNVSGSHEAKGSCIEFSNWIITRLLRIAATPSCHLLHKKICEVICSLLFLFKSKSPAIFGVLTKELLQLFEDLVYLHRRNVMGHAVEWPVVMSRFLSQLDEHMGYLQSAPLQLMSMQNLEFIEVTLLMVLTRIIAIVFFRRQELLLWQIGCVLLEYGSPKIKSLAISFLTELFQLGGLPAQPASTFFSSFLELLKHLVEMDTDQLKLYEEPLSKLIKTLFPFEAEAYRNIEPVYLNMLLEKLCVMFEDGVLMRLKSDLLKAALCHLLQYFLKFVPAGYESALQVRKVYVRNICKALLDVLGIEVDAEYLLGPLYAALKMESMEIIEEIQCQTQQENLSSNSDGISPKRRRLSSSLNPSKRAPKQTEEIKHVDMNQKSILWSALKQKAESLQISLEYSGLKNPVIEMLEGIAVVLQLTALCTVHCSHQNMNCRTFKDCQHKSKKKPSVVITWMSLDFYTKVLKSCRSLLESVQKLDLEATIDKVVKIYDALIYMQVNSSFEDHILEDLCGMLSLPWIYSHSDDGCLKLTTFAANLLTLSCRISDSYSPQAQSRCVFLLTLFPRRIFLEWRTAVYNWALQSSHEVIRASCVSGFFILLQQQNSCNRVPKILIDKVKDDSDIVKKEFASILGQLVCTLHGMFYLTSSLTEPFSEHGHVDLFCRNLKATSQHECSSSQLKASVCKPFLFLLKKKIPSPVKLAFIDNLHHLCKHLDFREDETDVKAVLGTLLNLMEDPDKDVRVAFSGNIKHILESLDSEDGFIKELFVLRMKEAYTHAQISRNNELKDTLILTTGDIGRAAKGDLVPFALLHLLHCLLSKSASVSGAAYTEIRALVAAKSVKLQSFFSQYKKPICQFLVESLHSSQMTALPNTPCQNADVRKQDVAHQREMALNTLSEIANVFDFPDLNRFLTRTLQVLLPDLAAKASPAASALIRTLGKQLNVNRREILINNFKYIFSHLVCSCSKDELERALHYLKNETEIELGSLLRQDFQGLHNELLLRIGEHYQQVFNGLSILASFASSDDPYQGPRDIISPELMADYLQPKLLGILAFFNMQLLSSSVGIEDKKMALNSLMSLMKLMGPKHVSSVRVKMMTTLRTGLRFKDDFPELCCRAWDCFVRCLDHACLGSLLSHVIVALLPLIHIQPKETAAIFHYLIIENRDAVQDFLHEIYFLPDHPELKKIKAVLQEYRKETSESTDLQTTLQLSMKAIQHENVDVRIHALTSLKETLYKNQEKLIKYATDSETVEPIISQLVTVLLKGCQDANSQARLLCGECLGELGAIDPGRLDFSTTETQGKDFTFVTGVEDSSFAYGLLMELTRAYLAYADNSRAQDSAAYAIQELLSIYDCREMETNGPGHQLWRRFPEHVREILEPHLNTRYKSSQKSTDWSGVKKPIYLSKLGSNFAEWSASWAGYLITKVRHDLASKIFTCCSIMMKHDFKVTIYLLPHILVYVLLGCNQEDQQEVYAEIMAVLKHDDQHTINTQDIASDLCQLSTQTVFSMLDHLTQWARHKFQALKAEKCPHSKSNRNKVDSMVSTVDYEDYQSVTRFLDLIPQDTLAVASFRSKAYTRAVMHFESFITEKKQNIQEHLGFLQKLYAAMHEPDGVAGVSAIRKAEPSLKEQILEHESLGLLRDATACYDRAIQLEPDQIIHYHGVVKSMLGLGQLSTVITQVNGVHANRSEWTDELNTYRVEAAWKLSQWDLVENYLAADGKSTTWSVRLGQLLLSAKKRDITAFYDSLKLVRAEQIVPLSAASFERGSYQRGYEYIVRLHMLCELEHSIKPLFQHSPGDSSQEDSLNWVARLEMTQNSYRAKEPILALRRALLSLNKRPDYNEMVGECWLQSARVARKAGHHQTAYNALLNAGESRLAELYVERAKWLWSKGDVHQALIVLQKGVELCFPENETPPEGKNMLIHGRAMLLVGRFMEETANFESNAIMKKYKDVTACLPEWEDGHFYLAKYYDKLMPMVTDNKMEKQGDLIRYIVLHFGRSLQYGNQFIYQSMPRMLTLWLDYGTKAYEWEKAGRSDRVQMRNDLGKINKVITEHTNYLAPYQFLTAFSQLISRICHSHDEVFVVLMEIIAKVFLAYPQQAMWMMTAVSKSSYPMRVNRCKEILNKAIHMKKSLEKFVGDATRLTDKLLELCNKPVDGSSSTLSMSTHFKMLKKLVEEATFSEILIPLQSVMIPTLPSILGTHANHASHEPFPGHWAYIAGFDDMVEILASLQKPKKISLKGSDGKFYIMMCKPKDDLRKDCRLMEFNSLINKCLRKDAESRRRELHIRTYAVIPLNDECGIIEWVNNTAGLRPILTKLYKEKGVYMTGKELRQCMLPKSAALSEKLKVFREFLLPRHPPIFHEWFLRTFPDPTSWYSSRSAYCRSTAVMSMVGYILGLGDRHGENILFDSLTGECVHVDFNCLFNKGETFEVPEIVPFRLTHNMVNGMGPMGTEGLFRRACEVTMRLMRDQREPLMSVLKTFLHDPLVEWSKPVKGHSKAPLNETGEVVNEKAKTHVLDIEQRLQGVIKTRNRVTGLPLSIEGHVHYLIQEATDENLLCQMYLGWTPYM
# Sequence (Q8WXE1 whole entry partner): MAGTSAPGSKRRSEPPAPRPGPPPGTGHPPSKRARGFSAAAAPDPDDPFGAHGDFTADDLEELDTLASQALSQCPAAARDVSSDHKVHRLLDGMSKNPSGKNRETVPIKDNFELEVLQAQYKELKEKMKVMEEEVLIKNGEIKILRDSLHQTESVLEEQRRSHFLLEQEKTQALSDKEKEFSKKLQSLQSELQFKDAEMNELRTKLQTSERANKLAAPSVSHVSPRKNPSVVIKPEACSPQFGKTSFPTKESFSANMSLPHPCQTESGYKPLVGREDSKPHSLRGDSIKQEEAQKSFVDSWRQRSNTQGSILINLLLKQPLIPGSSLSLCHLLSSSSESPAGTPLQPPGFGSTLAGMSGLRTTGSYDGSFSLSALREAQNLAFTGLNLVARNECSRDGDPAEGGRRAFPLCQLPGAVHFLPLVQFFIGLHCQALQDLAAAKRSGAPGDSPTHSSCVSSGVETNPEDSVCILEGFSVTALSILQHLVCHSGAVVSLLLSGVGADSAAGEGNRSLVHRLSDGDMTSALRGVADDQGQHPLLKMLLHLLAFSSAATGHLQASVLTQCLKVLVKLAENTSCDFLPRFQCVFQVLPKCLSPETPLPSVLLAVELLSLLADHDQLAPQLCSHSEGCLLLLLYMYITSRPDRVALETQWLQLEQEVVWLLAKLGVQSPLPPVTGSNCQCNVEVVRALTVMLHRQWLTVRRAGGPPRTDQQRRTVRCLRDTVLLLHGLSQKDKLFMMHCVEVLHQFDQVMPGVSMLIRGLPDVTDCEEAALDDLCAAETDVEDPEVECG
# Assay: Assay of ATR kinase activity (time-resolved fluorescence, phosphorylation of p53-derived protein)
# Format: biochemical
# Conditions: not given
# Description: Biotinylated protein derived from p53 (Eurofins, art. No.: 14-952) was phosphorylated with ATR kinase. The amount of phosphorylated protein was determined by time-resolved fluorescence in this assay. The amount of phosphorylated protein was detected by anti-p53-phospho-(serine 15)-K-specific antibody (Cisbio, art. No.: 61GSTDLA) and d2 labeled anti-GST antibody (Cisbio, art. No. 61P08KAE). Before the assay, the following working solutions were formulated as required: 1×reaction buffer (20 mM HEPES PH8.0, 1% glycerol, 0.01% Brij-35), dilution buffer (20 mM HEPES PH8.0, 1% glycerol, 0.01% Brij-35, 5 mM DTT and 1% BSA), stop solution (20 mM HEPES PH8.0, 1% glycerol, 0.01% Brij-35, 250 mM EDTA), detection buffer (50 mM HEPES pH7.0, 150 mM NaCl, 267 mM KF, 0.1% sodium cholate, 0.01% Tween-20, 0.0125% sodium azide). The reagents used above were purchased from Sigma or Invitrogen, except for those whose manufacturers were mentioned.
# Operations were as follows:
# 4× serially diluted compound solutions were prepared with 1× reaction buffer to give 9 compound solutions with different concentrations, and 2.5 μL of the 4× serially diluted compound solutions were added to a 384-well analysis plate (784075, Greiner). 4×p53 substrate working solution (40 nM) was prepared with 1× reaction buffer, and 2.5 μL of the 4×p53 substrate working solution was added to a 384-well analysis plate. 4×ATR/ATRIP working solution (12.8 ng/μL) was prepared with dilution buffer, and 2.5 μL of the 4×pATR/ATRIP working solution was added to a 384-well analysis plate. 4×ATP working solution (2 mM) was prepared with deionized water, and 2.5 μL of the 4×ATP working solution was added to a 384-well analysis plate. The plates were incubated at room temperature in dark for 30 minutes. 5 μL of stop solution was added to the 384 analysis plates. Finally, 5 μL of assay mixture (0.084 ng/μL Anti-phospho-p53(ser15)-K and 5 ng/μL Anti-GST-d2) was added to the 384 well analysis plates, and incubated at room temperature overnight. The fluorescence signal was detected with ENVISION (Perkinelmer) instrument (excitation wavelength: 320 nm, emission wavelength: 665 nm and 615 nm). The inhibition rate in each well was calculated by the fluorescence intensity value in each well:ER (Emission Ratio)=(Fluorescence intensity at 665 nm/Fluorescence intensity at 615 nm); inhibition rate=(ER of positive−ER of assay compound)/(ER of positive−ER of negative)×100%. IC50 values of compounds were calculated by standard software for parameter fitting (GraphPad Prism 6.0).
row,SMILES,IC50 [nM]
1,Cc1nn(-c2cncc(F)c2)c(C)c1-c1cc(N2CCOC[C@H]2C)nc(-c2cc(F)cc3[nH]ccc23)n1 [Compound A11],10
2,Cc1nn(-c2cncc(F)c2)c(C)c1-c1cc(N2CCOC[C@H]2C)nc(-c2cccc3[nH]ccc23)n1 [Compound A17],5
3,Cc1nn(-c2cncc(F)c2)c(C)c1-c1cc(N2CCOC[C@H]2C)nc(-c2ccnc3[nH]ccc23)n1 [Compound A19],2
4,Cc1nn(-c2cncc(F)c2)c(C)c1-c1cc(N2CCOC[C@H]2C)nc(-c2cc(CO)cc3[nH]ccc23)n1 [Compound A22],5
5,CNc1nc2ccccc2n1-c1nc(-c2c(C)nn(-c3cncc(F)c3)c2C)cc(N2CCOC[C@H]2C)n1 [Compound B1],11
6,Cc1nn(-c2cncc(F)c2)c(C)c1-c1cc(C23CCOCC2C3)nc(-c2cccc3[nH]ccc23)n1 (stereo not drawn) [Compound C3],16
